In patent US20130295017A1, “METHODS FOR SCREENING ANTIBIOTIC COMPOUNDS” (priority 2010, published 2013):

System: S. aureus strain ALC6094
Test: Murine model of subcutaneous infection (abscess), IPTG induction of MazFsa
Type: in vivo, Balb/C female mice
Conditions: for Log10 CFU/abscess: sacrifice day 4, n = 9
Source text: A murine model of subcutaneous infections (abscess) was used. Such models are well-established as methods to screen for in vivo activity to affect infection processes (Tamber et al. 2010. Infect. Immun. 78:3637-3646).
In the present experiments, a bacterial strain ALC6094, which is a derivative of S. aureus strain Newman was used. This strain contains a chromosomal copy of the T7 polymerase gene and the plasmid pG164::mazFsa, which is a shuttle plasmid with an IPTG-inducible T7 promoter driving MazFsa expression. Mice were challenged with 2×10^7 CFU of bacteria via subcutaneous (s.q.) injection and mixed with 1 mM IPTG immediately before injection. After injection, half of the IPTG-treated animals received two saline injections daily while the remaining half were injected with 1 mM IPTG (s.q.) daily for 2 days. All animals were sacrificed on day 4, including untreated control groups receiving no IPTG. […] Thus, drugs that disrupt the MazEF complex would be novel compounds for use in treating S. aureus bacterial infections.
Balb/C female mice (20-22 grams) were used to assess the utility of disrupting MazEFsa activity in vivo as a potential method for testing for drug efficacy. The mice were infected subcutaneously with 200 μl of 1.5×10^8 CFU/ml of bacteria. The bacterial strain used was ALC6094, which is a derivative of S. aureus strain Newman containing a chromosomal copy of the T7 polymerase gene and the plasmid pG164::mazFsa, which is a shuttle plasmid with an IPTG-inducible T7 promoter driving MazFsa expression. Control mice were infected with the bacteria but received no further injections. Two treatment groups were tested: 1) mice injected with ALC6094 that was mixed with IPTG immediately before injection (1 ml of a 5 mM solution of IPTG); and 2) mice injected with ALC6094 mixed with IPTG and then given daily IPTG injections for two subsequent days. Animal were sacrificed on day 4 after injection. Only mice receiving saline control developed visible abscesses by day 3, while those animals receiving IPTG had visible erythematous injection sites.

SMILES: CC(C)S[C@@H]1O[C@H](CO)[C@H](O)[C@H](O)[C@H]1O [IPTG]
- Log10 CFU/abscess (ALC6094 mixed with IPTG immediately before s.q. injection): 6.57 ± 0.83 Log10 CFU/abscess
- Log10 CFU/abscess (ALC6094 mixed with IPTG plus daily IPTG injections for two subsequent days): 6.59 ± 0.95 Log10 CFU/abscess
- abscess size vs. no IPTG controls (mice receiving IPTG induction for MazFsa): smaller abscess sizes
